In PubChem BioAssay (NCI):
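Grown in 96-well plates, cells were treated for 48 hours with each compound at five concentrations. Insufficient inhibition: endpoint recorded as highest concentration tested. GI50 is the concentration that inhibits growth by half. TGI marks complete inhibition of growth.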

Assays:
Experiment in all cases: growth of human tumour cells (NCI), 48 h
[1] = test system: SF-268 CNS
[2] = test system: MDA-MB-231 breast
[3] = test system: OVCAR-8 ovarian
[4] = test system: HOP-62 NSCLC
[5] = test system: SK-MEL-5 melanoma
[6] = test system: CAKI-1 renal
[7] = test system: NCI-H460 lung
[8] = test system: SR leukemia
[9] = test system: HCC-2998 colon
[10] = test system: ACHN renal
[11] = test system: SK-MEL-28 melanoma
[12] = test system: IGROV1 ovarian
[13] = test system: U251 CNS
[14] = test system: SK-MEL-2 melanoma
[15] = test system: T-47D breast
[16] = test system: RXF 393 renal
[17] = test system: UO-31 renal
[18] = test system: M14 melanoma
[19] = test system: 786-0 renal
[20] = test system: SN12C renal
[21] = test system: HOP-92 NSCLC
[22] = test system: A498 renal
[23] = test system: HS 578T breast
[24] = test system: MCF7 breast
[25] = test system: MDA-MB-435
[26] = test system: HL-60(TB) leukemia
[27] = test system: MOLT-4 leukemia
[28] = test system: UACC-257 melanoma
[29] = test system: NCI-H226 lung
[30] = test system: CCRF-CEM leukemia
[31] = test system: SNB-19 CNS
[32] = test system: PC-3 prostate
[33] = test system: SF-295 CNS
[34] = test system: HT29 colon
[35] = test system: OVCAR-4 ovarian
[36] = test system: EKVX NSCLC
[37] = test system: NCI-H23 lung
[38] = test system: NCI-H522 lung
[39] = test system: HCT-15 colon
[40] = test system: OVCAR-5 ovarian
[41] = test system: K-562 leukemia
[42] = test system: UACC-62 melanoma
[43] = test system: MALME-3M melanoma
[44] = test system: A549 NSCLC
[45] = test system: NCI/ADR-RES ovarian
[46] = test system: SK-OV-3 ovarian
[47] = test system: TK-10 renal
[48] = test system: LOX IMVI melanoma
[49] = test system: SF-539 CNS
[50] = test system: OVCAR-3 ovarian
[51] = test system: SNB-75 CNS
[52] = test system: HCT-116 colon
[53] = test system: COLO 205 colon
[54] = test system: RPMI-8226 leukemia
[55] = test system: SW-620 colon
[56] = test system: KM12 colon
[57] = test system: DU-145 prostate

For `CC1(C)CC[C@]2(C(=O)Nc3ccccn3)CC[C@]3(C)C(=CC[C@@H]4[C@@]5(C)C/C(=C/c6ccncc6)C(=O)C(C)(C)[C@@H]5CC[C@]43C)[C@@H]2C1`, the GI50 [1] was 9.45 µM, the TGI [1] was > 100 µM and the GI50 [2] was 2.92 µM. The TGI [2] was 19.5 µM, the GI50 [3] was 3.76 µM and the TGI [3] was > 100 µM. The GI50 [4] was 4.41 µM, the TGI [4] was > 100 µM and the GI50 [5] was 1.59 µM. For the same compound, the TGI [5] was 3.1 µM, the GI50 [6] was 2.69 µM and the TGI [6] was > 100 µM. For the same compound, the GI50 [7] was 1.51 µM, the TGI [7] was 3.9 µM and the GI50 [8] was 0.702 µM. The TGI [8] was > 100 µM, the GI50 [9] was 1.81 µM and the TGI [9] was 4.82 µM. It also gave a GI50 [10] of 2.08 µM, a TGI [10] of 5.98 µM and a GI50 [11] of 2.28 µM. The TGI [11] was 6.59 µM, the GI50 [12] was 3.12 µM and the TGI [12] was 67.3 µM. The GI50 [13] was 1.82 µM, the TGI [13] was 4.32 µM and the GI50 [14] was 3.63 µM. For the same compound, the TGI [14] was > 100 µM, the GI50 [15] was 1.68 µM and the TGI [15] was > 100 µM. For the same compound, the GI50 [16] was 1.67 µM, the TGI [16] was 3.37 µM and the GI50 [17] was 1.38 µM. The TGI [17] was 2.74 µM, the GI50 [18] was 2.85 µM and the TGI [18] was > 100 µM. The GI50 [19] was 2.88 µM, the TGI [19] was > 100 µM and the GI50 [20] was 2.57 µM. The TGI [20] was > 100 µM, the GI50 [21] was 1.24 µM and the TGI [21] was 7 µM. For the same compound, the GI50 [22] was 2.05 µM, the TGI [22] was 5.18 µM and the GI50 [23] was 2.96 µM. The TGI [23] was > 100 µM, the GI50 [24] was 0.938 µM and the TGI [24] was 15.3 µM. The GI50 [25] was 2.58 µM, the TGI [25] was > 100 µM and the GI50 [26] was 1.24 µM. For the same compound, the TGI [26] was 5.68 µM, the GI50 [27] was 2.27 µM and the TGI [27] was > 100 µM. The GI50 [28] was 2.2 µM, the TGI [28] was > 100 µM and the GI50 [29] was 1.97 µM. The TGI [29] was 6.04 µM, the GI50 [30] was 2.3 µM and the TGI [30] was > 100 µM. The GI50 [31] was 5.82 µM, the TGI [31] was > 100 µM and the GI50 [32] was 0.624 µM. For the same compound, the TGI [32] was > 100 µM, the GI50 [33] was 2.37 µM and the TGI [33] was 29.3 µM. The GI50 [34] was 2.17 µM, the TGI [34] was > 100 µM and the GI50 [35] was 2.9 µM. For the same compound, the TGI [35] was > 100 µM, the GI50 [36] was 3.8 µM and the TGI [36] was > 100 µM. For the same compound, the GI50 [37] was 3.18 µM, the TGI [37] was > 100 µM and the GI50 [38] was 2.09 µM. The TGI [38] was 27.7 µM, the GI50 [39] was 1.85 µM and the TGI [39] was 6.63 µM. For the same compound, the GI50 [40] was 4.14 µM, the TGI [40] was > 100 µM and the GI50 [41] was 1.78 µM. The TGI [41] was > 100 µM, the GI50 [42] was 1.85 µM and the TGI [42] was 8.89 µM. It also gave a GI50 [43] of 2.25 µM, a TGI [43] of 6.15 µM and a GI50 [44] of 2 µM. The TGI [44] was > 100 µM, the GI50 [45] was 4.48 µM and the TGI [45] was > 100 µM. For the same compound, the GI50 [46] was > 100 µM, the TGI [46] was > 100 µM and the GI50 [47] was 5.75 µM. The TGI [47] was > 100 µM.
With `N#C/C(=C\c1ccc(Br)cc1)n1nnc2c(F)cccc21` the GI50 [1] was 3.11 µM, the TGI [1] was > 100 µM and the GI50 [48] was 1.41 µM. For the same compound, the TGI [48] was 2.77 µM, the GI50 [2] was 1.28 µM and the TGI [2] was 4.17 µM. For the same compound, the GI50 [3] was 2.87 µM, the TGI [3] was > 100 µM and the GI50 [8] was 0.441 µM. For the same compound, the TGI [8] was > 100 µM, the GI50 [9] was 1.71 µM and the TGI [9] was 3.18 µM. The GI50 [10] was 1.04 µM, the TGI [10] was 2.38 µM and the GI50 [12] was 0.715 µM. The TGI [12] was 3.02 µM, the GI50 [15] was 0.353 µM and the TGI [15] was 4.78 µM. For the same compound, the GI50 [17] was 1.04 µM, the TGI [17] was 2.24 µM and the GI50 [19] was 1.29 µM. It also gave a TGI [19] of 2.91 µM, a GI50 [21] of 0.156 µM and a TGI [21] of 4.48 µM. For the same compound, the GI50 [22] was 1.36 µM, the TGI [22] was 4.65 µM and the GI50 [23] was 3.39 µM. For the same compound, the TGI [23] was > 100 µM, the GI50 [24] was 0.768 µM and the TGI [24] was > 100 µM. For the same compound, the GI50 [26] was 2.45 µM, the TGI [26] was > 100 µM and the GI50 [27] was 2.48 µM. For the same compound, the TGI [27] was > 100 µM, the GI50 [30] was 0.657 µM and the TGI [30] was 3.13 µM. For the same compound, the GI50 [49] was 2.21 µM, the TGI [49] was 5.45 µM and the GI50 [32] was 0.472 µM. For the same compound, the TGI [32] was 2.05 µM, the GI50 [36] was 1.75 µM and the TGI [36] was > 100 µM. For the same compound, the GI50 [50] was 0.275 µM, the TGI [50] was 0.845 µM and the GI50 [41] was 0.386 µM. The TGI [41] was > 100 µM, the GI50 [42] was 0.697 µM and the TGI [42] was 2.17 µM. The GI50 [43] was 1.44 µM, the TGI [43] was 3.93 µM and the GI50 [51] was 0.043 µM. For the same compound, the TGI [51] was 5.04 µM, the GI50 [44] was 1.93 µM and the TGI [44] was > 100 µM. The GI50 [47] was 2.36 µM, the TGI [47] was 6.5 µM and the GI50 [52] was 0.503 µM. The TGI [52] was 1.94 µM.
With `CCC(=O)OC1=C(c2ccccc2)Sc2ccc(Cl)cc2-n2cccc21` the TGI [1] was > 10 µM, the TGI [48] was > 10 µM and the TGI [2] was > 10 µM. For the same compound, the TGI [3] was > 10 µM, the TGI [4] was > 10 µM and the TGI [53] was > 10 µM. For the same compound, the TGI [5] was > 10 µM, the TGI [54] was > 10 µM and the TGI [6] was > 10 µM. The TGI [8] was > 10 µM, the TGI [9] was > 10 µM and the TGI [11] was > 10 µM. The TGI [12] was > 10 µM, the TGI [55] was > 10 µM and the TGI [56] was > 10 µM. For the same compound, the TGI [15] was > 10 µM, the TGI [16] was > 10 µM and the TGI [18] was > 10 µM. The TGI [19] was > 10 µM, the TGI [20] was > 10 µM and the TGI [21] was > 10 µM. The TGI [24] was > 10 µM, the TGI [25] was 5.28 µM and the TGI [26] was > 10 µM. For the same compound, the TGI [27] was > 10 µM, the TGI [28] was > 10 µM and the TGI [57] was > 10 µM. For the same compound, the TGI [30] was > 10 µM, the TGI [32] was > 10 µM and the TGI [33] was > 10 µM. For the same compound, the TGI [34] was > 10 µM, the TGI [35] was > 10 µM and the TGI [36] was > 10 µM. For the same compound, the TGI [37] was > 10 µM, the TGI [39] was > 10 µM and the TGI [41] was > 10 µM. The TGI [42] was > 10 µM, the TGI [43] was > 10 µM and the TGI [51] was > 10 µM. The TGI [44] was > 10 µM, the TGI [46] was > 10 µM and the TGI [47] was > 10 µM.
